# Experimental data reported in publication PMC9820166, “Salicylate Sodium Suppresses Monocyte Chemoattractant Protein-1 Production by Directly Inhibiting Phosphodiesterase 3B in TNF-α-Stimulated Adipocytes” (International Journal of Molecular Sciences, 2022).
# Key:
# [1] = tested on: MCP-1 production in TNF-α-stimulated 3T3-L1 pre-adipocytes; assay: Supernatant MCP-1 (ELISA) in TNF-α-stimulated 3T3-L1 pre-adipocytes; format: cell-based, mouse
# Description: (§1) The adipocytes were pretreated with SAS at different concentrations (0–5 mM) for 1 h and then stimulated with mouse TNF-α (40 ng/mL) at 37 °C for 24 h. The MCP-1 level in supernatant (for 3T3-L1 adipocytes) or subnatant (for primary adipocytes) was determined by ELISA according to the manufacturer’s instruction. The concentration of MCP-1 was calculated from the standard curve.
# recombinant human PDE3B = biological target: T1, recombinant human PDE3B (Homo sapiens, UniProt Q13370); assay: PDE3B activity inhibition (PDE-Glo PDE assay kit); format: biochemical
# T1 construct: purchased SignalChem Lifesciences Corporation
# From the text: (§2) (Fremont, CA, USA). […] All other reagents were of analytical grade.
# human PDE3A = biological target: T2, human PDE3A (Homo sapiens, UniProt Q14432); assay: PDE3A activity inhibition; format: biochemical
# T2 construct: purchased Sino Biological Inc
# From the text: as §2
# [2] = tested on: MCP-1 production in TNF-α-stimulated mouse primary adipocytes; assay: Subnatant MCP-1 (ELISA) in TNF-α-stimulated mouse primary adipocytes; format: cell-based; settings: SAS 0–5 mM pretreatment 1 h, TNF-α 40 ng/mL 24 h
# Description: The mouse primary adipocytes were isolated from normal lean male C57BL/6N mice, as described previously, with modification. In brief, the mice were anesthetized by an intraperitoneal injection of 2,2,2-tribromoethanol (200 mg/kg) and sacrificed via a dislocated neck. The epididymal fat pads were removed, minced and digested by collagenase I (2 mg/mL in DMEM supplemented with 20 mg/mL BSA) at 37 °C for 1 h. The digested tissue was filtered, and the filtrate was centrifuged at 200× g for 5 min. Remove and discard the underlying pellet (containing pre-adipocytes, fibroblasts, and erythrocytes) and media. Re-suspend the remaining fat layer in 10 mL DMEM and centrifuge at 200× g for 5 min. Repeat this step two additional times. The floating top layer containing primary differentiated mature adipocytes was collected and cultured in DMEM supplemented with 10% fetal bovine serum (FBS).
# as §1
# [3] = tested on: MCP-1 production in TNF-α-stimulated 3T3-L1 mature adipocytes; assay: Supernatant MCP-1 (ELISA) in TNF-α-stimulated 3T3-L1 mature adipocytes; format: cell-based, mouse; settings: SAS 0–5 mM pretreatment 1 h, TNF-α 40 ng/mL 24 h
# Description: The 3T3-L1 pre-adipocytes were cultured and differentiated into mature adipocytes, as previously described, with slight modification. The cells were maintained in M1 medium (DMEM supplemented with 10% FBS, 1 mM sodium pyruvate, 4 mM glutamine and 1% penicillin-streptomycin solution) to reach confluence. Approximately 2 days later (termed day 0), the medium was replaced with M2 medium (M1 medium supplemented with 1.5 μg/mL insulin, 1 μM dexamethasone, 0.5 mM IBMX and 2 μM rosiglitazone). Two days later, the medium was then changed to M3 medium (M1 medium supplemented with 1.5 μg/mL insulin). Two days later, the medium was replaced with M2 for another 2 days. From day 6, the cells were maintained in M3 medium with a medium change every day. About 8–10 days later, a microscope could observe a lot of lipid droplets and the mature adipocytes were obtained.
# as §1
# MCP-1 mRNA = MCP-1 mRNA level by RT-qPCR in TNF-α-stimulated 3T3-L1 pre-adipocytes; format: cell-based, mouse; settings: SAS 0–5 mM pretreatment 1 h, TNF-α 40 ng/mL 4 h
# Description: The adipocytes were pretreated with SAS at different concentrations (0–5 mM) for 1 h and then stimulated with mouse TNF-α (40 ng/mL) at 37 °C for 4 h. The total mRNA was isolated from 3T3-L1 pre-adipocytes by Trizol reagent according to the manufacturer’s instruction. Reverse transcription reactions were conducted by using M-MuLV first strand cDNA synthesis kit. The RT-qPCR analyses were performed on a BIOER Fluorescent Quantitative Detection System (Bioer Technology, Hangzhou, China). The procedure condition was as follows: 95 °C for 30 s, 95 °C for 5 s with 40 cycles, and 62 °C for 30 s. The comparative Ct method (2^−ΔΔCt) was used to analyze the relative intensities. The primer sequences for MCP-1 were as follows: 5′-[…]-3′ (forward) and 5′-[…]-3′ (reverse). The primer sequences for β-actin were as follows: 5′-[…]-3′ (forward) and 5′-[…]-3′ (reverse).
# MCP-1 mRNA stability = MCP-1 mRNA stability assay (actinomycin D); format: cell-based, mouse; settings: SAS 5 mM, TNF-α 40 ng/mL 2 h then actinomycin D 5 ug/mL
# Description: The mRNA stability assay was performed as described previously with modification. The 3T3-L1 pre-adipocytes were stimulated with TNF-α (40 ng/mL) for 2 h, and then treated with actinomycin D (5 ug/mL). SAS (5 mM) was added at different time points (0, 0.5, 2, 4 h). The total RNA were harvested, and the MCP-1 mRNA levels were measured by RT-qPCR analysis.
# p-ERK = assay: Western blot of p-ERK in TNF-α-stimulated 3T3-L1 pre-adipocytes; format: cell-based, mouse; settings: TNF-α 40 ng/mL
# Description: (§3) The 3T3-L1 pre-adipocytes ([…] per well in 6-well plates) were incubated with SAS for 1 h and then stimulated with mouse TNF-α (40 ng/mL) at 37 °C for indicated time. The total protein was extracted with the mammalian protein extraction kit. For western blot assay, equal amounts of protein samples (30 µg/lane) were separated by 10% sodium dodecyl sulphate-polyacrylamide gel electrophoresis (SDS-PAGE) and then transferred to PVDF membranes. Subsequently, the membranes were blocked with 5% non-fat milk powder in TBST (0.9 mM Tris, 9 mM Tris-HCl, 150 mM NaCl, 0.05% Tween-20) for 2 h at room temperature, and then incubated with various primary antibodies overnight at 4 °C. After being washed by TBST, the membranes were incubated with the corresponding secondary antibodies for 1 h at room temperature. After successive washes, the protein bands were detected using ECL luminescence reagent and photographed by the ChemiDoc XRS+ imaging system (Bio-Rad Technology, Hercules, California, America) or ChemiScope 6000 Exp (Clinx Science Instruments Co., Shanghai, China).
# p-p38 = assay: Western blot of p-p38 in TNF-α-stimulated 3T3-L1 pre-adipocytes; format: cell-based, mouse; settings: TNF-α 40 ng/mL
# Description: as §3
# MKP-1 = assay: Western blot of MKP-1 expression in TNF-α-stimulated 3T3-L1 pre-adipocytes; format: cell-based, mouse; settings: 2 h after TNF-α stimulation
# Description: as §3
# intracellular cAMP = assay: Intracellular cAMP level (ELISA) in TNF-α-stimulated 3T3-L1 pre-adipocytes; format: cell-based, mouse; settings: SAS pretreatment 1 h, TNF-α 40 ng/mL 1 h
# Description: To determine the time-course change of the TNF-α-induced intracellular cAMP, the 3T3-L1 pre-adipocytes were pretreated with or without SAS (5 mM) for 1 h and then exposed to TNF-α (40 ng/mL) for different time. The cells were lysed, and the changes of intracellular cAMP within 4 h were measured by using a commercial cAMP ELISA kit. To determine the concentration-effect of SAS on intracellular cAMP, 3T3-L1 pre-adipocytes were pretreated with SAS for 1 h at the indicated concentrations and then exposed to TNF-α (40 ng/mL) for further 1 h. The cells were lysed, and the intracellular cAMP level was measured by using a commercial cAMP ELISA kit. The protein concentration of each sample was determined using BCA assay, and the cAMP level of each sample was calculated according to the below formula:cAMP level (pmol/mg protein) = cAMP concentration (pmol/mL)/protein concentration (mg/mL)
# PKA = assay: Intracellular PKA activity (PepTag assay) in TNF-α-stimulated 3T3-L1 pre-adipocytes; format: cell-based, mouse; settings: SAS pretreatment 1 h, TNF-α 40 ng/mL 1 h
# Description: The 3T3-L1 pre-adipocytes were pretreated with SAS for 1 h and then stimulated with TNF-α (40 ng/mL) for further 1 h. The cells were lysed by cold PKA extraction buffer [25 mM Tris-HCl (pH 7.4), 0.5 mM EDTA, 0.5 mM EGTA, 10 mM β-mercaptoethanol, 1 μg/mL leupetin, 1 μg/mL aprotinin and 0.5 mM PMSF] and centrifuged (5000× g) at 4 °C for 10 min. The supernatant was used immediately for PKA activity determination by using a PepTag assay for non-radioactive detection of PKA.
# [4] = tested on: high-fat diet obese C57BL/6N mice; assay: Recruitment of labeled circulating monocytes into adipose tissue of obese mice; format: in vivo, mouse; settings: 45 mg/kg/day subcutaneous for 4 days
# Description: page 7: Figure S7. SAS impedes the recruitment of circulating monocytes into adipose tissue in vivo (n = 4). (A) The fluorescence intensity of monocytes in adipose tissue. Male C57BL/6N mice (18 g - 20 g) were fed with high-fat diet (HFD) for 18 weeks. The obtained obese mice (36 g - 40 g) with enough epididymal adipose tissues were subcutaneously injected with SAS (45 mg/kg/day) for 4 days. Circulating blood monocytes were labeled by intravenous injection of Fluoresbrite YG Carboxylate Microspheres. Three days later, the mice were euthanatized and adipose tissues around epididymis were collected, 1.5 g of adipose tissue was digested by collagenase I. The fluorescence value of digestive juice was read at λex 441 nm and λem 486 nm. **P < 0.01 vs. HFD alone. (B) The photograph of labeled monocytes in adipose tissues. The sectioned adipose tissue (about 0.5 g) for photograph by a laser confocal microscopy using a 20 × objective. Fluorescence-labeled monocytes were shown in green. SAS, salicylate sodium. (1 picture or pasted object on this page, not shown here)
# human PDE4B = human PDE4B (Homo sapiens, UniProt Q07343); settings: read-out: IC50 PDE4B activity
# [5] = 200 μM pretreatment 1 h, TNF-α 40 ng/mL 24 h
# T1 sequence (Q13370 whole entry): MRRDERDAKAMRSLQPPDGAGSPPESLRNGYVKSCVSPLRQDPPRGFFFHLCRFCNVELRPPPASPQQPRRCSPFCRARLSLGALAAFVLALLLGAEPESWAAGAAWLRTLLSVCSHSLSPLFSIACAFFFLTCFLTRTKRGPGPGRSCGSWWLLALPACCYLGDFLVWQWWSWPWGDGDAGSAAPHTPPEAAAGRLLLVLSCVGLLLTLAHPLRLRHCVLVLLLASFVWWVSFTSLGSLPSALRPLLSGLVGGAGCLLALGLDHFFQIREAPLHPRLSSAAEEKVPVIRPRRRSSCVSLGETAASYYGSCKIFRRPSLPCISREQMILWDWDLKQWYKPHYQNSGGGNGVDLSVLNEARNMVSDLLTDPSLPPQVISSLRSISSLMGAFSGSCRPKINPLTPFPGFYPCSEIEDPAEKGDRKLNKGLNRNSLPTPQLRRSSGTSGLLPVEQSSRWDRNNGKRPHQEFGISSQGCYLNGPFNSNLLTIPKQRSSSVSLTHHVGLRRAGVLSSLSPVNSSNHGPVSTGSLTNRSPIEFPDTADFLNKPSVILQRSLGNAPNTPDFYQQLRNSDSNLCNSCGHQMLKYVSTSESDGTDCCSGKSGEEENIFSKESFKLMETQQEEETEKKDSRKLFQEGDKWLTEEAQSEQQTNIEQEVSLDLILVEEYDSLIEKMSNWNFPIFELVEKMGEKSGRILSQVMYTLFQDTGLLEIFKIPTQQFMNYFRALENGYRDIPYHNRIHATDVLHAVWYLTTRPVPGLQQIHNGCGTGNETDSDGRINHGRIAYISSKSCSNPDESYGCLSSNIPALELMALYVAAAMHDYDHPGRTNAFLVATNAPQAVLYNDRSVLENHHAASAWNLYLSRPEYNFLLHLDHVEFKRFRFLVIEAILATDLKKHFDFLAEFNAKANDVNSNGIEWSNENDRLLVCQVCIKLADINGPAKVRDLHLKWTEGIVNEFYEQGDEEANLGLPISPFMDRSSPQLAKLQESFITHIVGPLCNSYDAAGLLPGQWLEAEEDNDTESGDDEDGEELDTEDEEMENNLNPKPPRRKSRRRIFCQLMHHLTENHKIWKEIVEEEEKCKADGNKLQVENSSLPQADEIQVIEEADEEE
# human PDE4B, sequence (Q07343 whole entry): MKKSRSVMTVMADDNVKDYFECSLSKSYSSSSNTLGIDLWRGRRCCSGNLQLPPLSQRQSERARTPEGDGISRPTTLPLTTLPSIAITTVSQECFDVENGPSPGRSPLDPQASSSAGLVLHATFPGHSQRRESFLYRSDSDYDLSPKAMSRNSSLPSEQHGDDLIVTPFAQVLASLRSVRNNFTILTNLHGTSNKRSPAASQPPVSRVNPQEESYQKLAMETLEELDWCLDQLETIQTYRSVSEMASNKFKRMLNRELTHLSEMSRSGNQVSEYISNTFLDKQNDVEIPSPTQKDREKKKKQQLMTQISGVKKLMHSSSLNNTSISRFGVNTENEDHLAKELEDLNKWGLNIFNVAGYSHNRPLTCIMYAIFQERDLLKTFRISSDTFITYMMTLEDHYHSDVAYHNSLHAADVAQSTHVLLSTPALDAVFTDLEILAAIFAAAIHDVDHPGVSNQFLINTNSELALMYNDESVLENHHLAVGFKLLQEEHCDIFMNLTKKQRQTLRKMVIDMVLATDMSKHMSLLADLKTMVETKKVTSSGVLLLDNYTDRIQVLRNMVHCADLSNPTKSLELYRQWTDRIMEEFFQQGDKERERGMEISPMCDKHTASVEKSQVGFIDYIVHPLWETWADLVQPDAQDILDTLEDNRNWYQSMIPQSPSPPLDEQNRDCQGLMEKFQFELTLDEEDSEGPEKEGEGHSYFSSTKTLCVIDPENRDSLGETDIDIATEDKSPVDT
# T2 sequence (Q14432 whole entry): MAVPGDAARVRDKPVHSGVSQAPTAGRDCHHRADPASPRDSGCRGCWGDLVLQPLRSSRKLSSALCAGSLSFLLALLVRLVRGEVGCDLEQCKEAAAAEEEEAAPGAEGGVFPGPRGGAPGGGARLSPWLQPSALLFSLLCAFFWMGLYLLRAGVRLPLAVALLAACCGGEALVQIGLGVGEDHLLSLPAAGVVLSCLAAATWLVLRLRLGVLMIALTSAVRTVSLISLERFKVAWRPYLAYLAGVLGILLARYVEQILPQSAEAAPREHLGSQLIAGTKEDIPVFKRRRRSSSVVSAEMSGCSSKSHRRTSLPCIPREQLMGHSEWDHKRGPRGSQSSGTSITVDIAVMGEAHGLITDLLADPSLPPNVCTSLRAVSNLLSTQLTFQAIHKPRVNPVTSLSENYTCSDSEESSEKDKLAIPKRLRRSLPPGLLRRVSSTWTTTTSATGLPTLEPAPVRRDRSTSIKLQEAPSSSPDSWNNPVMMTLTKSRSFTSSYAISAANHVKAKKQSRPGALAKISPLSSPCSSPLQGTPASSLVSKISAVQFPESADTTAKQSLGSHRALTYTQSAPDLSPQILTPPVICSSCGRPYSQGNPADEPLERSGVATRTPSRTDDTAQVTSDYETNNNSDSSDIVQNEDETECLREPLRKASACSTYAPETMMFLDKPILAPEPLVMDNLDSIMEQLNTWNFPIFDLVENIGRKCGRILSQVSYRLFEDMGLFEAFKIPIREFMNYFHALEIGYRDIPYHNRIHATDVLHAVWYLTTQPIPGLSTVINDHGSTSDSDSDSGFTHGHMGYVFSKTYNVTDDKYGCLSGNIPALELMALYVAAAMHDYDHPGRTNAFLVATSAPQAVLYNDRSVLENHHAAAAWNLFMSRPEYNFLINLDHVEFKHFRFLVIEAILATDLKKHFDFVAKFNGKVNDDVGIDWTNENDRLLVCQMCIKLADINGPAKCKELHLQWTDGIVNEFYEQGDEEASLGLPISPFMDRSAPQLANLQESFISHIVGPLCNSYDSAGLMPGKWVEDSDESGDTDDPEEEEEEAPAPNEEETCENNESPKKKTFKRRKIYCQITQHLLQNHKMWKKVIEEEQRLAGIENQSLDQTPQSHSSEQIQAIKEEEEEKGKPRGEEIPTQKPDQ
smiles,measurement,setting,value
NC(=O)c1ncn([C@@H]2O[C@H](CO)[C@@H](O)[C@H]2O)c1N [AICAR],Effect on MCP-1 production,"[1]; 100 μM pretreatment 1 h, TNF-α 40 ng/mL 24 h",did not decrease the MCP-1 production
c1cc(-c2cnn3cc(-c4ccc(OCCN5CCCCC5)cc4)cnc23)ccn1 [Compound C],Effect of AMPK inhibitor on the MCP-1-lowering effect of SAS,"[1]; co-treatment with SAS, TNF-α-stimulated",could not antagonize the effect of SAS
O=S(=O)(NCCNC/C=C/c1ccc(Br)cc1)c1cccc2cnccc12 [H89],Effect of PKA antagonist on the MCP-1-lowering effect of SAS,"[1]; 100 nM, with SAS, TNF-α-stimulated",abolished the effect of SAS on MCP-1
Nc1ncnc2c1ncn2[C@@H]1O[C@@H]2CO[P@@](O)(=S)O[C@H]2[C@H]1O [RP-cAMPS],Effect of cAMP antagonist on the MCP-1-lowering effect of SAS,"[1]; 100 μM, with SAS, TNF-α-stimulated",abolished the effect of SAS on MCP-1
"O=C(O)c1ccccc1O [SAS, salicylate sodium]",IC50,recombinant human PDE3B,13.8 mM
same,IC50,human PDE3A,6 mM
same,Effect on MCP-1 production (supernatant),"[1]; 3T3-L1 pre-adipocytes, SAS 0–5 mM pretreatment 1 h, TNF-α 40 ng/mL 24 h",significantly decreased MCP-1 production
same,Effect of SAS on MCP-1 in IKKβ-deficient cells,[1]; IKKβ siRNA knockdown 3T3-L1 pre-adipocytes,did not impact the effect of SAS on MCP-1
same,Effect of SAS on MCP-1 in PDE3B-deficient cells,[1]; PDE3B siRNA knockdown 3T3-L1 pre-adipocytes vs scrambled siRNA,almost disappeared
same,Concentration that impedes MCP-1 expression in adipocytes,"[1]; in vitro, adipocytes (Figure 2)",1.25 to 5 mM
same,Effect on MCP-1 production (subnatant),[2],significantly decreased MCP-1 production
same,Effect on MCP-1 production (supernatant),[3],significantly decreased MCP-1 production
same,Effect on MCP-1 mRNA level,MCP-1 mRNA,concentration-dependently decreased the MCP-1 mRNA level
same,Effect on MCP-1 mRNA stability,MCP-1 mRNA stability,did not affect the mRNA stability of MCP-1
same,Effect on p-ERK level,p-ERK,concentration-dependently decrease the levels of p-ERK and p-p38
same,Effect on p-p38 level,p-p38,concentration-dependently decrease the levels of p-ERK and p-p38
same,Effect on MKP-1 expression,MKP-1,maintained the expression of MKP-1 at 2 h
same,Effect on TNF-α-caused reduction of intracellular cAMP,intracellular cAMP,could prevent this decrease in a concentration-dependent manner
same,Effect on intracellular PKA activity,PKA,elevated the intracellular PKA activity
same,Recruitment of circulating monocytes into adipose tissue,[4],markedly prevented the recruitment of circulating monocytes into the adipose tissue
same,IC50,human PDE4B,0.81 mM
CN(C(=O)CCCOc1ccc2[nH]c(=O)ccc2c1)C1CCCCC1 [cilostamide],Effect on MCP-1 production,[1]; [5],suppressed the MCP-1 production
Cc1[nH]c(=O)c(C#N)cc1-c1ccncc1 [milrinone],Effect on MCP-1 production,[1]; [5],suppressed the MCP-1 production
